Measurements as given in patent US11873298B2, “Compounds and uses thereof” (JANSSEN PHARMACEUTICA NV, priority 2017, dated 2024).
pIC50: −log10 of the molar value.

Columns and labels:
SCD5 = molecular target: T1, SCD5 (Homo sapiens, UniProt Q86SK9); test: Growth inhibition of humanized yeast strain expressing SCD5 as sole desaturase; assay type: cell-based
T1 construct: host or cells: S. cerevisiae ole1Δ strain (W303 pdr1Δ pdr3Δ background), plasmid pRS316 with TDH3 promoter and CYC1 terminator
T1 sequence (Q86SK9 1-330): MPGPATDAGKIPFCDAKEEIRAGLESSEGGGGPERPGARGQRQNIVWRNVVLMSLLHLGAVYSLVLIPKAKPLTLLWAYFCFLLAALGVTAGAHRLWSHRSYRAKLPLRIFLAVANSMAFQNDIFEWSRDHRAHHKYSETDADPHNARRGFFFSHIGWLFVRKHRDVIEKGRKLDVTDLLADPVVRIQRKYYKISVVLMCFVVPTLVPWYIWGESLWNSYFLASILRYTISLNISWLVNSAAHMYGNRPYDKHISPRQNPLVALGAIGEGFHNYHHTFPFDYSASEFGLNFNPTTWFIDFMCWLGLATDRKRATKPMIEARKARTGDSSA
Summary of the method: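 Plasmid-complemented ole1Δ yeast, drug-pump deleted (pdr1Δ pdr3Δ), depend solely on the introduced Ole1, SCD1 or SCD5 desaturase. Compounds are added from DMSO to cells in uracil-free galactose medium, 2× density 0.02, and OD600 is read after 24 h or 40 h respectively.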

SCD1 = molecular target: T2, SCD1 (Homo sapiens, UniProt O00767); test: Growth inhibition of humanized yeast strain expressing SCD1 as sole desaturase; assay type: cell-based
T2 construct: host or cells: S. cerevisiae ole1Δ strain (W303 pdr1Δ pdr3Δ background), plasmid pRS316 with TDH3 promoter and CYC1 terminator
T2 sequence (O00767 1-359): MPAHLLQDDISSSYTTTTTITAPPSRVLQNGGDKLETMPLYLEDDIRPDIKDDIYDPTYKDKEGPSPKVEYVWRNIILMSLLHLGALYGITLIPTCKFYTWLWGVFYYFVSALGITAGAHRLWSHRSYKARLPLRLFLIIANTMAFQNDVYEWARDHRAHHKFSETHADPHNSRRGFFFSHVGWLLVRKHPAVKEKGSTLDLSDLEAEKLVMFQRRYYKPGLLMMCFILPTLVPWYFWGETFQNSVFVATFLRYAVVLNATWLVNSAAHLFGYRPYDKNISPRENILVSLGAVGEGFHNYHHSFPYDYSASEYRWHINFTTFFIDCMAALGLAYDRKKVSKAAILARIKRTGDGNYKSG
Experimental: Strain oleΔ (yeast ole1 deletion mutant) was constructed by deleting OLE1 with NAT-MX6 in BY4741, amplifying the deletion cassette from the genomic DNA of the resulting strain with primers flanking the ORF by 1000 bp upstream and downstream, transforming the resulting deletion cassette into W303 pdr1Δ pdr3Δ, and plating transformants on YPD media containing G418 (200 μg/mL) and nourseothricin ([…]) with 0.01% TWEEN®-20 and 0.5 mM oleic and palmitoleic acids.
The coding sequence of yeast OLE1 was also cloned into this plasmid). These clones were then transformed into the ole1Δ strain and plated on CSM-Ura media (CSM lacking uracil) with 2% glucose (w/v) and independent colonies were isolated and amplified.
All compound profiling experiments were performed using the same basic protocol. Different genetic backgrounds (e.g., gene deletions) or conditions (e.g., addition of oleic and palmitoleic acid) were replaced as indicated below.
Yeast were cultured using standard techniques in complete synthetic media (CSM) and yeast nitrogen base supplemented with 2% (w/v) carbon source (glucose, raffinose, or galactose) to regulate the expression of the toxic disease protein. An initial starter culture was inoculated in 3 mL CSM-Glucose media and incubated overnight in a 30° C. shaker incubator (225 rpm). Saturated morning cultures were then diluted 1:20 in fresh CSM-Raffinose media and grown for 6 h to an OD600 (optical density) of ˜0.4-0.8 at 30° C. with shaking.
Compound administration was performed in two separate steps. First, 15 μL of CSM-Galactose (induces expression of toxic protein) was dispensed into clear 384 well assay plates using a MULTIDROP™ Combi reagent dispenser. […] The cultures described above were then diluted to a 2× concentration (0.03 and 0.08 for alpha-synuclein and ApoE, final ODsoo of 0.015 and 0.04) in CSM-Galactose. For wild-type and Ole1/SCD1/SCD5 plasmid-containing strains, the 2× cell density was 0.02. […] For 96-well assays (FIGS. 1A and 1B), compound dilutions in DMSO were generated in 96 well plates and 1 μL was manually pipetted into 96 well clear bottom assay plates.
For experiments using a plasmid-borne copy of Ole1, SCD1, or SCD5 (FIGS. 3B, 6, and 7), media lacking uracil (SX-Ura, where X is glucose, raffinose, or galactose), was used for all steps of the compound profiling protocol to ensure its maintenance throughout the assay.
After yeast delivery, assay plates were incubated under humidified conditions at 30° C. for 24 to 40 h. ApoE4 rescue experiments were stopped at 24 h, aSyn experiments at 40 h, Ole1 at 24 h, and SCD1/SCD5 at 40 h. The growth of yeast was monitored by reading the ODsoo of each well using a microplate reader (Perkin Elmer EnVision™).

[1] = growth inhibition of humanized yeast strain expressing human SCD5
[2] = growth inhibition of humanized yeast strain expressing human SCD1
[3] = humanized yeast strain expressing SCD5
[4] = humanized yeast strain expressing SCD1

Compound | pIC50 (SCD5; humanized yeast strain, 40 h) | pIC50 (SCD1; humanized yeast strain, 40 h) | other results
COC(=O)N1CCC(c2nc(-c3ccc4onc(C(C)C)c4c3)no2)CC1 [Compound 646] |  |  | pIC50 (SCD5; [1]): 5.93; pIC50 (SCD1; [2]): < 4.35
CC(C)(C)OC(=O)N1CCC(c2nc(-c3ccn4cnc(I)c4c3)no2)CC1 [Compound 858] | 6.58 | < 4.35 | 
CC(C)n1ncc2ccc(-c3noc(C4CCN(C(=O)C5(C)CCCO5)CC4)n3)cc21 (stereo not shown) [Compound 703] |  |  | pIC50 (SCD5; [1]): 6.92; pIC50 (SCD1; [2]): < 4.35
Cc1nn(C)c2cc(-c3noc(C4CCN(C(=O)CNC(=O)OC(C)(C)C)CC4(F)F)n3)ccc12 (stereo not shown) [Compound 527] |  |  | pIC50 (SCD5; [3]): 5.84; pIC50 (SCD1; [4]): 6.02
Cc1nn(C)c2cc(-c3noc(C4CCN(C(=O)[C@H]5CC(=O)N(c6cccc(C#N)c6)C5)CC4(F)F)n3)ccc12 (stereo partly shown) [Compound 631] |  |  | pIC50 (SCD5; [1]): < 4.35; pIC50 (SCD1; [2]): < 4.35
CC(C)(C)OC(=O)N1CCC(c2nc(-c3ccc4oc(=O)n(C5COC5)c4c3)no2)CC1 [Compound 649] |  |  | pIC50 (SCD5; [1]): 6.59; pIC50 (SCD1; [2]): < 4.35
CC(C)(C)OC(=O)N1CCN(c2noc(-c3ccnc(NC4COC4)c3)n2)CC1 [Compound 818] | 6.25 | < 4.35 | 
Cc1nn(C)c2cc(-c3noc(C4CCN(C(=O)CNC(=O)c5ccc(F)cc5)CC4(F)F)n3)ccc12 (stereo not shown) [Compound 557] |  |  | pIC50 (SCD5; [3]): 5.22; pIC50 (SCD1; [4]): < 4.35
CC(C)(C)OC(=O)N1CCC(c2noc(-c3ccnc(C4CCOC4)c3)n2)CC1 (stereo not shown) [Compound 999] | 8.00 | < 4.35 | 
CC(C)(C)OC(=O)N1CCN(c2noc(-c3ccc4c(c3)C3(CCC3)OC4)n2)CC1 [Compound 831] | 5.92 | < 4.35 | 
CC(C)(C)OC(=O)N1CCC(c2noc(-c3ccc(F)c(N4CCOCC4)c3)n2)CC1 [Compound 1149] | 8.00 | < 4.35 | 
O=C(c1ccccc1F)N1CCN(c2noc(-c3ccc4cnn(C5COC5)c4c3)n2)CC1 [Compound 725] |  |  | pIC50 (SCD5; [1]): 7.96; pIC50 (SCD1; [2]): 5.22
CC(C)C(=O)N1CCC(c2nc(-c3ccc4cnn(C5COC5)c4c3)no2)CC1 [Compound 1023] | 6.53 | < 4.35 | 
CC(C)n1ncc2ccc(-c3nc(C4CCNC4)no3)cc21 (stereo not shown) [Compound 531] |  |  | pIC50 (SCD5; [3]): < 4.35; pIC50 (SCD1; [4]): < 4.35
CC(C)n1ncc2ccc(-c3noc(C4CCN(C(=O)C56CC(C(F)(F)F)(C5)C6)CC4)n3)cc21 [Compound 757] | 5.31 | < 4.35 | 
CC(C)(C)OC(=O)N1CCN(c2noc(-c3cccc(C4CCCO4)c3)n2)CC1 (stereo not shown) [Compound 785] | 7.39 | 5.04 | 
CC(C)n1ncc2ccc(-c3noc(C4CCN(C(=O)C56CCC(F)(CC5)CC6)CC4)n3)cc21 [Compound 755] | 5.27 | < 4.35 | 
CC1(OC(=O)N2CCC(c3noc(-c4cc(F)c5cnn(C6COC6)c5c4)n3)CC2)CC1 [Compound 1069] | 9.06 | < 4.35 | 
CC(C)n1ncc2ccc(-c3noc(N4CCN(C(=O)c5cccc(F)c5)CC4)n3)cc21 [Compound 547] |  |  | pIC50 (SCD5; [3]): 4.35; pIC50 (SCD1; [4]): < 4.35

Compound | pIC50 (SCD5; humanized yeast strain, 40 h) | pIC50 (SCD1; humanized yeast strain, 40 h) | other results
O=C(C1CCC1)N1CCCN(c2noc(-c3ccc4cnn(C5COC5)c4c3)n2)CC1 [Compound 961] | < 4.35 | < 4.35 | 
Cc1nn(C)c2cc(-c3noc(C4CCN(C(=O)CNC(=O)c5ccc(Cl)cc5)CC4(F)F)n3)ccc12 (stereo not shown) [Compound 554] |  |  | pIC50 (SCD5; [3]): 5.97; pIC50 (SCD1; [4]): 5.39
Cc1nn(C)c2cc(-c3noc([C@H]4CC[C@H](O)CC4)n3)ccc12 [Compound 526] |  |  | pIC50 (SCD5; [3]): < 4.35; pIC50 (SCD1; [4]): < 4.35
CC(C)(C)OC(=O)N1CCC(c2ccc(-c3ccc4cnn(C5COC5)c4c3)cn2)CC1 [Compound 966] | 6.82 | < 4.35 | 
Clc1cnc2n1CCN(c1noc(-c3ccc4cn[nH]c4c3)n1)C2 [Compound 904] | 5.12 | < 4.35 | 
CC(C)n1ncc2ccc(-c3nc(C4CCN(C(=O)CC(C)(C)C)C4)no3)cc21 (stereo not shown) [Compound 542] |  |  | pIC50 (SCD5; [3]): 5.13; pIC50 (SCD1; [4]): < 4.35
COC1(C(=O)N2CCC(c3nc(-c4ccc5cnn(C(C)C)c5c4)no3)CC2)CC1 [Compound 797] | 6.88 | < 4.35 | 
CC(C)C(=O)N1CCC(c2noc(-c3ccc(F)c(N4CCOCC4)c3)n2)CC1 [Compound 1162] | 7.69 | 4.76 | 
O=C(c1ncccc1Cl)N1CCC(c2noc(-c3ccc4cnn(C5COC5)c4c3)n2)CC1 [Compound 695] |  |  | pIC50 (SCD5; [1]): 5.62; pIC50 (SCD1; [2]): < 4.35
COC(=O)N1CCC(c2noc(-c3ccc4cnn(C5COC(C)(C)C5)c4c3)n2)CC1 (stereo not shown) [Compound 1094] | 4.76 | < 4.35 | 
CC(C)(C)OC(=O)N1CCC(c2nc(-c3ccc4cnn(C5CCOC5)c4c3)no2)CC1 (stereo not shown) [Compound 650] |  |  | pIC50 (SCD5; [1]): 7.89; pIC50 (SCD1; [2]): 5.36
C[C@H](NC(=O)[C@H]1[C@@H]2CN(C(=O)OC(C)(C)C)C[C@@H]21)c1ccccc1 [Compound 769] | < 4.35 | < 4.35 | 
O=C(c1ccccc1Cl)N1CCN(c2noc(-c3ccc4cnn(C5COC5)c4c3)n2)CC1 [Compound 726] |  |  | pIC50 (SCD5; [1]): 8.00; pIC50 (SCD1; [2]): 5.25
CC1(OC(=O)N2CCC(c3noc(-c4ccnc(NC5COC5)c4)n3)CC2)CC1 [Compound 1151] | 5.96 | < 4.35 | 
COC(=O)N1CCN(c2noc(-c3ccc4cnn(C5COC5)c4c3)n2)CC(F)(F)C1 [Compound 1034] | 6.19 | < 4.35 | 
CC(C)C(=O)N1CCC(c2noc(-c3ccnc(NC4COC4)c3)n2)CC1 [Compound 1153] | 6.08 | 5.71 | 
Clc1cnc2n1CCN(c1noc(-c3ccc4cnn(C5COC5)c4c3)n1)C2 [Compound 896] | 8.00 | < 4.35 | 
CC(C)(C)OC(=O)N1CCC(c2noc(-c3ccc4ccn(C5COC5)c4c3)n2)CC1 [Compound 1039] | 8.00 | 4.80 | 
CC(C)(C)CC(=O)N1CCC(c2nc(-c3ccc4cnn(C5CCOC5)c4c3)no2)CC1 (stereo not shown) [Compound 775] | 7.66 | < 4.35 | 
